In patent US20190374533A1, “COMPOUNDS AND METHODS FOR INHIBITING NHE-MEDIATED ANTIPORT IN THE TREATMENT OF DISORDERS ASSOCIATED WITH FLUID RETENTION OR SALT OVERLOAD AND GASTROINTESTINAL TRACT DISORDERS” (Ardelyx, Inc., priority 2008, published 2019):
pIC50: −log10 of the molar value. Counter-ions that a name gives are not always drawn.

Assays:
human NHE3 = biological target: T1, human NHE3 (Homo sapiens, UniProt P48764); test: Cell-based assay of NHE-3 activity (pre-incubation inhibition), human; conditions: human Preincubation assay; for pIC50: PS120 fibroblasts expressing human NHE3 and NHERF2, 0-30 μM test compound
T1 construct: host or cells: PS120 fibroblasts
T1 sequence (P48764 26-834): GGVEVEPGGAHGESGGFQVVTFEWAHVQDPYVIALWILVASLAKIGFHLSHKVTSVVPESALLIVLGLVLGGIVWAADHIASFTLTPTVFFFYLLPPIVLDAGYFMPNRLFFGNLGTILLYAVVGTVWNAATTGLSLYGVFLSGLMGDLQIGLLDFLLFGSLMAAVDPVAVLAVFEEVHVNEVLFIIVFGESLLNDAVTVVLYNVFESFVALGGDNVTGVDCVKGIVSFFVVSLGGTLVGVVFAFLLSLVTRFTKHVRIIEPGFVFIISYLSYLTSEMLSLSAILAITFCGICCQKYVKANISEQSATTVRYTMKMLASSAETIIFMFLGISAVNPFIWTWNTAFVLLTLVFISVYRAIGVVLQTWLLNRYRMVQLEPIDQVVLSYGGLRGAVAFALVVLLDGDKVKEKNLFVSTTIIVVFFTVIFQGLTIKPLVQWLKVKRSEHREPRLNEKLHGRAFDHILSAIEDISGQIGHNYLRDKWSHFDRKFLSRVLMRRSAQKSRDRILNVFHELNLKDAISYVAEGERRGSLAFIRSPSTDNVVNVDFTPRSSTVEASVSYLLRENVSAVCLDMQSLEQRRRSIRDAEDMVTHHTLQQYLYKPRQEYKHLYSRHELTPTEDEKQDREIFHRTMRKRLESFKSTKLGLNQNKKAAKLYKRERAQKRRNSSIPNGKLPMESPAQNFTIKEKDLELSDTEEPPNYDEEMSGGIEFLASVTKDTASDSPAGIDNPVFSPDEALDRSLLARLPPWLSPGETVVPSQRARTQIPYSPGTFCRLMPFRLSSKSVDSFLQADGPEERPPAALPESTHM
T1 sequence (Q99653 2-195 partner limits assumed): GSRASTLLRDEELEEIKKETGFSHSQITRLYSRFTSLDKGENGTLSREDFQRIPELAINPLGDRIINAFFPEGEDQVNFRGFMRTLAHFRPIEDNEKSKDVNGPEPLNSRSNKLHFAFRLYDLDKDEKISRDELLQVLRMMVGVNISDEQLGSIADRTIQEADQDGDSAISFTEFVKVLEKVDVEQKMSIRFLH
Method: Rat and human NHE-3-mediated Na^+-dependent H^+ antiport was measured using a modification of the pH sensitive dye method originally reported by Paradiso (Proc. Natl. Acad. Sci. USA. (1984) 81(23): 7436-7440). PS120 fibroblasts stably expressing human NHE3 and NHERF2 were obtained from Mark Donowitz (Baltimore, Md.). Opossum kidney (OK) cells were obtained from the ATCC and propagated per their instructions. The rat NHE-3 gene (GenBank M85300) was introduced into OK cells via electroporation, and cells were seeded into 96 well plates and grown overnight. Medium was aspirated from the wells then incubated for 30 min at 37° C. with NH4Cl-HEPES buffer (20 mM NH4Cl, 80 mM NaCl, 50 mM HEPES, 5 mM KCl, 2 mM CaCl2, 1 mM MgCl2, pH 7.4) containing 5 μM BCECF-AM. Cells were washed once with Ammonium free, Na^+-free HEPES (100 mM choline, 50 mM HEPES, 10 mM glucose, 5 mM KCl, 2 mM CaCl2, 1 mM MgCl2, pH 7.4) and incubated in the same buffer for 10 minutes at room temperature to lower intracellular pH with 0-30 μM test compound. […] Changes in intracellular pH were monitored using a FLIPR Tetra® (Molecular Devices, Sunnyvale, Calif.) by excitation at λex 439 to 505 nm, and measuring BCECF fluorescence at λem 538 nm. The initial rate of the fluorescence ratio change was used as a measure of NHE-mediated Na^+/H^+ activity, and reported as the change in fluorescence ratio per minute.

rat NHE-3 = biological target: T2, rat NHE-3 (Rattus norvegicus, UniProt P26433); test: Cell-based assay of NHE-3 activity (Pharmacological Test Example 1); conditions: OK cells expressing rat NHE-3; 0-30 uM test compound, 5 uM EIPA; read-out: rat NHE-3 Average pIC50 (converted)
T2 construct: expressed in transfected cells; host or cells: Opossum kidney (OK) cells (ATCC), electroporated
Procedure, shortened: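 Na+-dependent H+ exchange tracked with the pH-sensitive dye BCECF in opossum kidney cells transiently expressing rat NHE-3. Intracellular acidification by NH4Cl prepulse, then 10 min in ammonium- and Na+-free HEPES, pH 7.4, room temperature. Initial rates averaged over 3-6 replicates give pIC50.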

T2 sequence (P26433 29-831): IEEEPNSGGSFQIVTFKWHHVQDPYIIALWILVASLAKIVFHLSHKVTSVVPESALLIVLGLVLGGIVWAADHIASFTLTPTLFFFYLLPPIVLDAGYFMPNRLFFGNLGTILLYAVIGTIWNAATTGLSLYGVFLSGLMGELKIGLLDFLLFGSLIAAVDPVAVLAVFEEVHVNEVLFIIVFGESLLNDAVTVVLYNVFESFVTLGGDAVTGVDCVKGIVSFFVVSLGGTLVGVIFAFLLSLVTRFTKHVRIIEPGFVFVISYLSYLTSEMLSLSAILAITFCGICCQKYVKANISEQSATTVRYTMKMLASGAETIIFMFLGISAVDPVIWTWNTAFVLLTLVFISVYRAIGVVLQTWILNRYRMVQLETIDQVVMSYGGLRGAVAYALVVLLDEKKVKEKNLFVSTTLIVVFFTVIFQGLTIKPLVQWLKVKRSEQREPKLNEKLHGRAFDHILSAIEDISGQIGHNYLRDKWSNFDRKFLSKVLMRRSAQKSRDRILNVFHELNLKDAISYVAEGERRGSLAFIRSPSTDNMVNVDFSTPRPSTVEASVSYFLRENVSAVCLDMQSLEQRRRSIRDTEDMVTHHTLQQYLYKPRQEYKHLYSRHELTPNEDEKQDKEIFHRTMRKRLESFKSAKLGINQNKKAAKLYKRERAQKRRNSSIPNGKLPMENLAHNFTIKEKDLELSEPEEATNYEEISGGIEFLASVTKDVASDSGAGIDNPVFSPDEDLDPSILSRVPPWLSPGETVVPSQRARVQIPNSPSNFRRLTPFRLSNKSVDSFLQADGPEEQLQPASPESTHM

Compound | % inhibition (human NHE3) | pIC50 (human NHE3) | IC50 (rat NHE-3) [nM]
CN1Cc2c(Cl)cc(Cl)cc2[C@H](c2cccc(S(=O)(=O)NCCOCCOCCNC(=O)NCCCCNC(=O)NCCOCCOCCNS(=O)(=O)c3cccc([C@@H]4CN(C)Cc5c(Cl)cc(Cl)cc54)c3)c2)C1 (single isomer, unassigned) [Example 202, (S or R)—N,N′-(10,17-dioxo-3,6,21,24-tetraoxa-9,11,16,18-tetraazahexacosane-1,26-diyl)bis(3-((S)-6,8-dichloro-2-methyl-1,2,3,4-tetrahydroisoquinolin-4-yl)benzenesulfonamide) bis-hydrochloride salt] | C (>70%) | > 7.00 | < 100
CN1Cc2c(Cl)cc(Cl)cc2[C@H](c2cccc(S(=O)(=O)NCCOCCOCCNC(=O)Nc3ccc(NC(=O)NCCOCCOCCNS(=O)(=O)c4cccc([C@@H]5CN(C)Cc6c(Cl)cc(Cl)cc65)c4)cc3)c2)C1 (single isomer, unassigned) [Example 203, (S or R)—N,N′-(2,2′-(2,2′-(2,2′-(1,4-phenylenebis(azanediyl))bis(oxomethylene)bis(azanediyl)bis(ethane-2,1-diyl))bis(oxy)bis(ethane-2,1-diyl))bis(oxy)bis(ethane-2,1-diyl))bis(3-((S or R)-6,8-dichloro-2-methyl-1,2,3,4-tetrahydroisoquinolin-4-yl)benzenesulfonamide) bis-hydrochloride salt] | C (>70%) | > 7.00 | < 100
